Assay results published in ChEMBL document CHEMBL4020769, “Gemcitabine anti-proliferative activity significantly enhanced upon conjugation with cell-penetrating peptides” (Bioorg Med Chem Lett, 2017).
Peptide text beside a SMILES is read from it. * marks the point of attachment. X1 = O=C(CCS*)Nc1ccn([C@@H]2O[C@H](CO)[C@@H](O)C2(F)F)c(=O)n1

What was measured:
[1] = system: MKN-28; test: Antiproliferative activity against human MKN28 cells after 48 hrs by sulforhodamine B assay; format: functional, cell-based; settings: MKN-28, 48 h
[2] = system: Caco-2; test: Antiproliferative activity against human Caco2 cells after 48 hrs by sulforhodamine B assay; format: functional, cell-based; settings: Caco-2, 48 h
[3] = system: HT-29; test: Antiproliferative activity against human HT-29 cells after 48 hrs by sulforhodamine B assay; format: functional, cell-based; settings: for IC50: HT-29, 48 h
[4] = Prodrug conversion in pH 7.4 phosphate buffered saline assessed as gemcitabine release by HPLC method
[5] = Half life in pH 7.4 phosphate buffered saline by HPLC method; format: physicochemical
[6] = system: HT-29; test: Growth inhibition of human HT-29 cells after 48 hrs by sulforhodamine B assay relative to control; format: functional

| Compound | IC50 [1] | IC50 [2] | IC50 [3] | half-life [5] | Drug metabolism [4] | Activity [3] | growth inhibition (GI) [6] |
| --- | --- | --- | --- | --- | --- | --- | --- |
| CC[C@H](C)[C@H](NC(=O)[C@H](CCCCN)NC(=O)[C@@H](NC(=O)[C@H](CCC(N)=O)NC(=O)[C@H](CCCNC(=N)N)NC(=O)[C@@H](N)CS)[C@@H](C)CC)C(=O)N[C@@H](Cc1c[nH]c2ccccc12)C(=O)N[C@@H](Cc1ccccc1)C(=O)N[C@@H](CCC(N)=O)C(=O)N[C@@H](CC(N)=O)C(=O)N[C@@H](CCCNC(=N)N)C(=O)N[C@@H](CCCNC(=N)N)C(=O)N[C@@H](CCSC)C(=O)N[C@@H](CCCCN)C(=O)N[C@@H](Cc1c[nH]c2ccccc12)C(=O)N[C@@H](CCCCN)C(=O)N[C@@H](CCCCN)C(=O)O | > 100 µM | > 100 µM | > 100 µM |  |  |  |  |
| CC[C@H](C)[C@H](NC(=O)[C@H](CCCNC(=N)N)NC(=O)[C@H](CCCNC(=N)N)NC(=O)[C@H](CCCNC(=N)N)NC(=O)[C@H](CC(C)C)NC(=O)[C@@H](NC(=O)[C@@H](NC(=O)[C@H](CC(C)C)NC(=O)[C@H](CC(C)C)NC(=O)[C@@H](N)CSSCCC(=O)Nc1ccn([C@@H]2O[C@H](CO)[C@@H](O)C2(F)F)c(=O)n1)[C@@H](C)CC)[C@@H](C)CC)C(=O)N[C@@H](CCCNC(=N)N)C(=O)N[C@@H](CCCCN)C(=O)N[C@@H](CCC(N)=O)C(=O)N[C@@H](C)C(=O)N[C@@H](Cc1cnc[nH]1)C(=O)N[C@@H](C)C(=O)N[C@@H](Cc1cnc[nH]1)C(=O)N[C@@H](CO)C(=O)N[C@@H](CCCCN)C(=O)O (H-C(X1)LLIILRRRIRKQAHAHSK-OH) | 20.7 µM | > 100 µM | 45.2 µM | 42 h | Metabolite detected | Dose-dependent effect |  |
| H-CLLIILRRRIRKQAHAHSK-OH | > 100 µM | > 100 µM | > 100 µM |  |  |  |  |

Continued, in another order:

| IC50 [1] | IC50 [2] | IC50 [3] | half-life [5] | Compound | Drug metabolism [4] | Activity [3] | growth inhibition (GI) [6] |
| --- | --- | --- | --- | --- | --- | --- | --- |
| 47 µM | 67.1 µM | 47.3 µM | 230 h | CC[C@H](C)[C@H](NC(=O)[C@H](CCCCN)NC(=O)[C@@H](NC(=O)[C@H](CCC(N)=O)NC(=O)[C@H](CCCNC(=N)N)NC(=O)[C@@H](N)CSSCCC(=O)Nc1ccn([C@@H]2O[C@H](CO)[C@@H](O)C2(F)F)c(=O)n1)[C@@H](C)CC)C(=O)N[C@@H](Cc1c[nH]c2ccccc12)C(=O)N[C@@H](Cc1ccccc1)C(=O)N[C@@H](CCC(N)=O)C(=O)N[C@@H](CC(N)=O)C(=O)N[C@@H](CCCNC(=N)N)C(=O)N[C@@H](CCCNC(=N)N)C(=O)N[C@@H](CCSC)C(=O)N[C@@H](CCCCN)C(=O)N[C@@H](Cc1c[nH]c2ccccc12)C(=O)N[C@@H](CCCCN)C(=O)N[C@@H](CCCCN)C(=O)O | Metabolite detected | Dose-dependent effect |  |
| > 100 µM | > 100 µM | > 100 µM |  | Nc1ccn([C@@H]2O[C@H](CO)[C@@H](O)C2(F)F)c(=O)n1 [GEMCITABINE] |  |  | 30% |
